In patent US20250144067A1, “PERSONALIZED STARVATION THERAPY FOR CANCER” (Faeth Therapeutics, Inc., priority 2021, published 2025):
Structures can show the parent of a compound that is named as a salt.

How the values were obtained:
[1] = test system: NCI-H292 lung cancer cells; test: FDA drug screening, complete media vs cholesterol-free media with simvastatin (TABLE 2); format: cell-based, human; details: for Cholesterol-free media + simvastatin (0.04 μM) / Complete Media: NCI-H292 cells
[2] = test system: NCI-H292 lung cancer cells; test: FDA drug screening, complete media vs cholesterol-free media without statin (TABLE 1); format: cell-based, human
[3] = Complete minus Cholesterol-free, […]
[4] = NCI-H292 cells in cholesterol-free media without statin
[5] = NCI-H292 cells in complete media
[6] = drug in cholesterol-free media with simvastatin 0.04 μM
[7] = complete media vs cholesterol-free media + simvastatin (0.04 μM), >0 enhanced anti-cancer activity, about 0 neutral, <0 antagonist
[8] = Complete minus Cholesterol-free, greater than 0 enhanced anti-cancer activity, about 0 neutral, below 0 antagonist
[9] = NCI-H292 cells, FDA drug library screen, cholesterol-free media without statin
[10] = NCI-H292 cells, FDA drug library screen, complete media
[11] = FDA drug library screen, cholesterol-free media with simvastatin 0.04 μM
[12] = FDA drug library screen, complete media
[13] = Complete minus Cholesterol-free, greater than 0 enhanced anti-cancer activity, about 0 neutral, below 0 antagonists
[14] = cholesterol-free media with simvastatin 0.04 μM, FDA drug library screen (TABLE 2)
[15] = complete media, FDA drug library screen (TABLE 2)
[16] = complete media minus cholesterol-free media + simvastatin (0.04 μM), >0 enhanced anti-cancer activity, about 0 neutral, <0 antagonist
[17] = NCI-H292 cells, cholesterol-free media without statin
[18] = complete vs cholesterol-free media, […]
[19] = complete media minus cholesterol-free media + simvastatin, >0 enhanced anti-cancer activity, about 0 neutral, <0 antagonist
[20] = Complete minus Cholesterol-free, >0 enhanced anti-cancer activity, about 0 neutral, <0 antagonist
[21] = NCI-H292 cells, cholesterol-free media without statin, FDA drug library screen
[22] = NCI-H292 cells, complete media, FDA drug library screen
[23] = complete vs cholesterol-free media, greater than 0 enhanced anti-cancer activity, about 0 neutral, below 0 antagonists
[24] = complete vs cholesterol-free media, >0 enhanced anti-cancer activity, about 0 neutral, <0 antagonist
[25] = FDA library drug in cholesterol-free media with simvastatin 0.04 μM
[26] = complete media vs cholesterol-free media + simvastatin (0.04 μM), […]
[27] = cholesterol-free media with simvastatin 0.04 μM, cell growth value in FDA drug screen
[28] = complete media, cell growth value in FDA drug screen
[29] = FDA library drug in complete media

Compound: OC[C@H]1NC[C@H](O)[C@@H](O)[C@H]1O [Migalastat (hydrochloride)]
- Cholesterol-free media + simvastatin (0.04 μM) ([1]; cholesterol-free media with simvastatin 0.04 μM, […]): 0.7275
- Complete Media ([1]; complete media, […]): 0.7465
- Difference ([1]; complete media minus cholesterol-free media + simvastatin, […]): 0.02
- Difference [2, 3]: −0.53
- Cholesterol-free [2, 4]: 1.45
- Complete [2, 5]: 0.9162

Compound: OCCN1C[C@H](O)[C@@H](O)[C@H](O)[C@H]1CO [Miglitol]
- Cholesterol-free media + simvastatin (0.04 μM) [1, 6]: 1.367
- Complete Media ([1]; drug in complete media): 1.199
- Difference [1, 7]: −0.17
- Difference [2, 8]: −0.11
- Cholesterol-free [2, 9]: 0.916
- Complete [2, 10]: 0.8049

Compound: CCCCN1C[C@H](O)[C@@H](O)[C@H](O)[C@H]1CO [Miglustat (hydrochloride)]
- Cholesterol-free media + simvastatin (0.04 μM) [1, 11]: 0.8113
- Complete Media [1, 12]: 0.7082
- Difference [1, 7]: −0.10
- Difference [2, 13]: −0.51
- Cholesterol-free [2, 4]: 1.836
- Complete [2, 5]: 1.323

Compound: C[N+](C)(C)NCCC(=O)[O-] [Mildronate]
- Cholesterol-free media + simvastatin (0.04 μM) [1, 14]: 0.9839
- Complete Media [1, 15]: 0.9927
- Difference [1, 16]: 0.01
- Difference [2, 8]: −0.08
- Cholesterol-free [2, 9]: 0.9949
- Complete [2, 10]: 0.9146

Compound: CCN(CC)C(=O)C1(c2ccccc2)CC1CN (stereo not shown) [Milnacipran (hydrochloride)]
- Cholesterol-free media + simvastatin (0.04 μM) [1, 14]: 1.626
- Complete Media [1, 15]: 1.564
- Difference ([1]; complete media minus cholesterol-free media + simvastatin (0.04 μM), […]): −0.06
- Cholesterol-free [2, 17]: 1.545
- Complete ([2]; NCI-H292 cells, complete media): 1.09
- Difference [2, 18]: −0.45

Compound: Cc1[nH]c(=O)c(C#N)cc1-c1ccncc1 [Milrinone]
- Cholesterol-free media + simvastatin (0.04 μM) [1, 11]: 1.16
- Complete Media [1, 12]: 1.825
- Difference [1, 19]: 0.66
- Difference [2, 20]: −0.04
- Cholesterol-free [2, 21]: 0.9793
- Complete [2, 22]: 0.9407

Compound: CCCCCCCCCCCCCCCCOP(=O)([O-])OCC[N+](C)(C)C [Miltefosine]
- Cholesterol-free media + simvastatin (0.04 μM) [1, 6]: 1.237
- Complete Media ([1]; drug in complete media): 0.9911
- Difference [1, 7]: −0.25
- Difference [2, 20]: −0.07
- Cholesterol-free [2, 21]: 1.003
- Complete [2, 22]: 0.9345

Compound: Cc1cc(-c2ccccc2)nnc1NCCN1CCOCC1 [Minaprine (dihydrochloride)]
- Cholesterol-free media + simvastatin (0.04 μM) [1, 11]: 0.8439
- Complete Media [1, 12]: 1.278
- Difference [1, 19]: 0.43
- Cholesterol-free [2, 17]: 1.341
- Complete ([2]; NCI-H292 cells, complete media): 0.9021
- Difference [2, 23]: −0.44

Compound: CN(C)c1ccc(O)c2c1C[C@H]1C[C@H]3[C@H](N(C)C)C(O)=C(C(N)=O)C(=O)[C@@]3(O)C(O)=C1C2=O [Minocycline (hydrochloride)]
- Cholesterol-free media + simvastatin (0.04 μM) [1, 11]: 1.589
- Complete Media [1, 12]: 1.958
- Difference [1, 19]: 0.37
- Cholesterol-free [2, 21]: 0.8959
- Complete [2, 22]: 1.177
- Difference [2, 24]: 0.28

Compound: Nc1cc(N2CCCCC2)nc(N)[n+]1OS(=O)(=O)[O-] [Minoxidil sulfate]
- Cholesterol-free media + simvastatin (0.04 μM) [1, 11]: 1.144
- Complete Media [1, 12]: 1.047
- Difference [1, 7]: −0.10
- Difference [2, 20]: −0.27
- Cholesterol-free [2, 17]: 1.329
- Complete ([2]; NCI-H292 cells, complete media): 1.056

Compound: Nc1cc(N2CCCCC2)nc(N)[n+]1[O-] [Minoxidil]
- Cholesterol-free media + simvastatin (0.04 μM) [1, 25]: 1.841
- Difference [1, 7]: −0.68
- Difference [2, 20]: −0.20
- Cholesterol-free [2, 17]: 1.202
- Complete ([2]; NCI-H292 cells, complete media): 1.002

Compound: Nc1nc(CC(=O)Nc2ccc(CCNC[C@H](O)c3ccccc3)cc2)cs1 [Mirabegron]
- Cholesterol-free media + simvastatin (0.04 μM) [1, 11]: 1.317
- Complete Media [1, 12]: 1.183
- Difference [1, 7]: −0.13
- Cholesterol-free [2, 17]: 1.131
- Complete ([2]; NCI-H292 cells, complete media): 0.7731
- Difference [2, 23]: −0.36

Compound: CCCOc1ccc(S(=O)(=O)N2CCN(CCO)CC2)cc1-c1nc2c(CCC)cn(CC)c2c(=O)[nH]1 [Mirodenafil (dihydrochloride)]
- Cholesterol-free media + simvastatin (0.04 μM) [1, 11]: 0.7461
- Complete Media [1, 12]: 0.9273
- Difference [1, 19]: 0.18
- Difference [2, 20]: −0.27
- Cholesterol-free [2, 17]: 1.435

Compound: CCC1=C[C@@H]2[C@H](C1)C[C@]2(CN)CC(=O)O [Mirogabalin]
- Cholesterol-free media + simvastatin (0.04 μM) [1, 6]: 1.082
- Complete Media ([1]; drug in complete media): 0.8543
- Difference [1, 26]: −0.23
- Cholesterol-free [2, 21]: 0.5074
- Complete [2, 22]: 1.015
- Difference [2, 18]: 0.51

Compound: CN1CCN2c3ncccc3Cc3ccccc3C2C1 (stereo not shown) [Mirtazapine]
- Cholesterol-free media + simvastatin (0.04 μM) [1, 14]: 0.9802
- Complete Media [1, 15]: 0.914
- Difference [1, 16]: −0.07
- Difference [2, 8]: −0.17
- Cholesterol-free [2, 9]: 1.176
- Complete [2, 10]: 1.005

Compound: O=C(O)[C@H](CC(=O)N1C[C@H]2CCCC[C@H]2C1)Cc1ccccc1 [Mitiglinide (Calcium)]
- Cholesterol-free media + simvastatin (0.04 μM) [1, 6]: 1.855
- Complete Media ([1]; drug in complete media): 1.594
- Difference [1, 7]: −0.26
- Difference [2, 13]: −0.81
- Cholesterol-free [2, 4]: 1.668
- Complete [2, 5]: 0.8559

Compound: Clc1ccc(C(c2ccccc2Cl)C(Cl)Cl)cc1 (stereo not shown) [Mitotane]
- Cholesterol-free media + simvastatin (0.04 μM) [1, 6]: 1.345
- Complete Media ([1]; drug in complete media): 1.125
- Difference [1, 7]: −0.22
- Difference [2, 20]: −0.20
- Cholesterol-free [2, 17]: 1.108
- Complete ([2]; NCI-H292 cells, complete media): 0.9109

Compound: O=C1c2c(O)ccc(O)c2C(=O)c2c(NCCNCCO)ccc(NCCNCCO)c21 [Mitoxantrone (dihydrochloride)]
- Cholesterol-free media + simvastatin (0.04 μM) [1, 27]: 0.006643
- Complete Media [1, 28]: 0.04976
- Difference [1, 19]: 0.04
- Difference [2, 20]: 0.00
- Cholesterol-free [2, 21]: −0.002893
- Complete [2, 22]: −0.002012

Compound: O=C1c2c(O)ccc(O)c2C(=O)c2c(NCCNCCO)ccc(NCCNCCO)c21 [Mitoxantrone]
- Cholesterol-free media + simvastatin (0.04 μM) [1, 14]: 0.04539
- Complete Media [1, 15]: −0.01641
- Difference [1, 16]: −0.06
- Difference [2, 20]: −0.04
- Cholesterol-free [2, 21]: 0.007289
- Complete [2, 22]: −0.03159

Compound: COc1cc2c(cc1OC)[C@@H](Cc1cc(OC)c(OC)c(OC)c1)[N+](C)(CCCOC(=O)CC/C=C/CCC(=O)OCCC[N+]1(C)CCc3cc(OC)c(OC)cc3[C@H]1Cc1cc(OC)c(OC)c(OC)c1)CC2.[Cl-].[Cl-] (stereo partly shown) [Mivacurium (dichloride)]
- Cholesterol-free media + simvastatin (0.04 μM) [1, 25]: 1.752
- Complete Media [1, 29]: 1.463
- Difference [1, 26]: −0.29
- Difference [2, 3]: −0.21
- Cholesterol-free [2, 17]: 0.9248
- Complete ([2]; NCI-H292 cells, complete media): 0.7178

Compound: CN(c1nccc(=O)[nH]1)C1CCN(c2nc3ccccc3n2Cc2ccc(F)cc2)CC1 [Mizolastine]
- Cholesterol-free media + simvastatin (0.04 μM) [1, 11]: 0.9531
- Complete Media [1, 12]: 0.8007
- Difference [1, 7]: −0.15
- Difference [2, 8]: −0.17
- Cholesterol-free [2, 9]: 1.446
- Complete [2, 10]: 1.273

Compound: NC(=O)c1ncn([C@@H]2O[C@H](CO)[C@@H](O)[C@H]2O)c1O [Mizoribine]
- Cholesterol-free media + simvastatin (0.04 μM) [1, 11]: 1.118
- Complete Media [1, 12]: 0.9745
- Difference [1, 7]: −0.14
- Difference [2, 8]: −0.10
- Cholesterol-free [2, 9]: 0.879
- Complete [2, 10]: 0.7795

Compound: O=C(NCCN1CCOCC1)c1ccc(Cl)cc1 [Moclobemide]
- Cholesterol-free media + simvastatin (0.04 μM) [1, 14]: 0.9196
- Complete Media [1, 15]: 0.8957
- Difference [1, 16]: −0.02
- Difference [2, 20]: −0.27
- Cholesterol-free [2, 17]: 1.09
- Complete ([2]; NCI-H292 cells, complete media): 0.8213

Compound: CCOC(=O)[C@H](CCc1ccccc1)N[C@@H](C)C(=O)N1Cc2cc(OC)c(OC)cc2C[C@H]1C(=O)O [Moexipril (hydrochloride)]
- Cholesterol-free media + simvastatin (0.04 μM) [1, 25]: 1.452
- Complete Media [1, 29]: 1.081
- Difference [1, 7]: −0.37
- Difference [2, 20]: 0.02
- Cholesterol-free [2, 21]: 1.004
- Complete [2, 22]: 1.024

Compound: CCOC(=O)CC(=O)N1CCSC1COc1ccccc1OC (stereo not shown) [Moguisteine]
- Cholesterol-free media + simvastatin (0.04 μM) [1, 14]: 0.9351
- Complete Media [1, 15]: 0.879
- Difference [1, 16]: −0.06
- Cholesterol-free [2, 21]: 0.7084
- Complete [2, 22]: 1.262
- Difference [2, 24]: 0.55

Compound: CCc1c(C)[nH]c2c1C(=O)C(CN1CCOCC1)CC2 (stereo not shown) [Molindone (hydrochloride)]
- Cholesterol-free media + simvastatin (0.04 μM) [1, 11]: 0.9443
- Complete Media [1, 12]: 0.8609
- Difference [1, 7]: −0.08
- Difference [2, 20]: −0.28
- Cholesterol-free [2, 17]: 1.138
- Complete ([2]; NCI-H292 cells, complete media): 0.8619

Compound: CCOC(=O)[N-]c1cn(N2CCOCC2)n[o+]1 [Molsidomine]
- Cholesterol-free media + simvastatin (0.04 μM) [1, 11]: 1.15
- Complete Media [1, 12]: 1.6
- Difference [1, 19]: 0.45
- Difference [2, 13]: −0.60
- Cholesterol-free [2, 4]: 1.343
- Complete [2, 5]: 0.7419

Compound: C[C@@H]1C[C@H]2[C@@H]3CCC4=CC(=O)C=C[C@]4(C)[C@@]3(Cl)[C@@H](O)C[C@]2(C)[C@@]1(OC(=O)c1ccco1)C(=O)CCl [Mometasone furoate]
- Cholesterol-free media + simvastatin (0.04 μM) [1, 27]: 0.7611
- Complete Media [1, 28]: 0.8877
- Difference [1, 19]: 0.13
- Difference [2, 20]: −0.24
- Cholesterol-free [2, 17]: 0.8128
- Complete ([2]; NCI-H292 cells, complete media): 0.5699
